In patent US8389247B2, “Physiogenomic method for predicting diabetes and metabolic syndromes induced by psychotropic drugs” (priority 2006, dated 2013):

How the values were obtained:
[1] = cited from earlier work
[2] = Outcome variables of patients on each psychotropic drug broken down by demographic factors (Covariates tables); format: in vivo, human
Text: Various SNPs associated with, for example, the observation of various parameters of metabolic syndromes in patients on psychotropic drugs were screened. The endpoints analyzed were the blood levels of LDL, HDL, and glucose; blood pressure; body mass index; waist circumference; and metabolic syndromes index. The physiogenomic model was developed using the following procedure: 1) Establish a covariate model using only the demographic and clinical variables, 2) Screen for associated genetic markers by testing each SNP against the unexplained residual of the covariate model, and 3) Establish a revised model incorporating the significant associations from the SNP screen.

SMILES: Cc1cc2c(s1)Nc1ccccc1N=C2N1CCN(C)CC1 [olanzapine]
- treated patients with induced weight gain, diabetes and other metabolic derangements [1]: 50%
- BM (body mass) ([2]; Age 20-30): 87.06
- Glucose (blood glucose level) ([2]; Age 20-30): 88.65
- HDL (HDL cholesterol level) ([2]; Age 20-30): 48.55
- LDL (LDL cholesterol level) ([2]; Age 20-30): 104.10
- Log (TG) (triglyceride level) ([2]; Age 20-30): 5.086
- TC (total cholesterol level) ([2]; Age 20-30): 189.00
- Waist (waist circumference) ([2]; Age 20-30): 99.18
- dBP (diastolic blood pressure) ([2]; Age 20-30): 75.15
- sBP (systolic blood pressure) ([2]; Age 20-30): 118.20
- BM (body mass) ([2]; Age 30-40): 83.17
- Glucose (blood glucose level) ([2]; Age 30-40): 92.29
- HDL (HDL cholesterol level) ([2]; Age 30-40): 47.68
- LDL (LDL cholesterol level) ([2]; Age 30-40): 103.73
- Log (TG) (triglyceride level) ([2]; Age 30-40): 5.168
- TC (total cholesterol level) ([2]; Age 30-40): 189.82
- Waist (waist circumference) ([2]; Age 30-40): 97.82
- dBP (diastolic blood pressure) ([2]; Age 30-40): 74.14
- sBP (systolic blood pressure) ([2]; Age 30-40): 117.32
- BM (body mass) ([2]; Age 40-50): 79.34
- Glucose (blood glucose level) ([2]; Age 40-50): 92.47
- HDL (HDL cholesterol level) ([2]; Age 40-50): 52.40
- LDL (LDL cholesterol level) ([2]; Age 40-50): 107.00
- Log (TG) (triglyceride level) ([2]; Age 40-50): 4.968
- TC (total cholesterol level) ([2]; Age 40-50): 202.00
- Waist (waist circumference) ([2]; Age 40-50): 98.32
- dBP (diastolic blood pressure) ([2]; Age 40-50): 78.10
- sBP (systolic blood pressure) ([2]; Age 40-50): 119.10
- BM (body mass) ([2]; Age 50-60): 95.73
- Glucose (blood glucose level) ([2]; Age 50-60): 86.67
- HDL (HDL cholesterol level) ([2]; Age 50-60): 49.67
- LDL (LDL cholesterol level) ([2]; Age 50-60): 104.00
- Log (TG) (triglyceride level) ([2]; Age 50-60): 5.373
- TC (total cholesterol level) ([2]; Age 50-60): 204.67
- Waist (waist circumference) ([2]; Age 50-60): 105.80
- dBP (diastolic blood pressure) ([2]; Age 50-60): 87.00
- sBP (systolic blood pressure) ([2]; Age 50-60): 136.33
- BM (body mass) ([2]; Age 70-80): 44.40
- Glucose (blood glucose level) ([2]; Age 70-80): 92.00
- HDL (HDL cholesterol level) ([2]; Age 70-80): 68.00
- LDL (LDL cholesterol level) ([2]; Age 70-80): 94.00
- Log (TG) (triglyceride level) ([2]; Age 70-80): 4.159
- TC (total cholesterol level) ([2]; Age 70-80): 174.0
- Waist (waist circumference) ([2]; Age 70-80): 65.00
- dBP (diastolic blood pressure) ([2]; Age 70-80): 66.00
- sBP (systolic blood pressure) ([2]; Age 70-80): 100.0
- BM (body mass) ([2]; Age <20): 65.00
- Glucose (blood glucose level) ([2]; Age <20): 109.00
- HDL (HDL cholesterol level) ([2]; Age <20): 28.00
- LDL (LDL cholesterol level) ([2]; Age <20): 68.00
- Log (TG) (triglyceride level) ([2]; Age <20): 4.787
- TC (total cholesterol level) ([2]; Age <20): 120.00
- Waist (waist circumference) ([2]; Age <20): 96.00
- dBP (diastolic blood pressure) ([2]; Age <20): 77.00
- sBP (systolic blood pressure) ([2]; Age <20): 109.00
- BM (body mass) ([2]; All patients on the drug): 82.90
- Glucose (blood glucose level) ([2]; All patients on the drug): 91.22
- HDL (HDL cholesterol level) ([2]; All patients on the drug): 49.45
- LDL (LDL cholesterol level) ([2]; All patients on the drug): 104.11
- Log (TG) (triglyceride level) ([2]; All patients on the drug): 5.072
- TC (total cholesterol level) ([2]; All patients on the drug): 192.60
- Waist (waist circumference) ([2]; All patients on the drug): 98.21
- dBP (diastolic blood pressure) ([2]; All patients on the drug): 76.12
- sBP (systolic blood pressure) ([2]; All patients on the drug): 118.58
- BM (body mass) ([2]; Gender female): 82.39
- Glucose (blood glucose level) ([2]; Gender female): 97.53
- HDL (HDL cholesterol level) ([2]; Gender female): 51.89
- LDL (LDL cholesterol level) ([2]; Gender female): 118.94
- Log (TG) (triglyceride level) ([2]; Gender female): 4.985
- TC (total cholesterol level) ([2]; Gender female): 212.16
- Waist (waist circumference) ([2]; Gender female): 100.74
- dBP (diastolic blood pressure) ([2]; Gender female): 75.84
- sBP (systolic blood pressure) ([2]; Gender female): 116.79
- BM (body mass) ([2]; Gender male): 83.10
- Glucose (blood glucose level) ([2]; Gender male): 88.98
- HDL (HDL cholesterol level) ([2]; Gender male): 48.48
- LDL (LDL cholesterol level) ([2]; Gender male): 98.54
- Log (TG) (triglyceride level) ([2]; Gender male): 5.107
- TC (total cholesterol level) ([2]; Gender male): 184.85
- Waist (waist circumference) ([2]; Gender male): 97.21
- dBP (diastolic blood pressure) ([2]; Gender male): 76.23
- sBP (systolic blood pressure) ([2]; Gender male): 119.29
- BM (body mass) ([2]; Heritage AA): 87.38
- Glucose (blood glucose level) ([2]; Heritage AA): 98.31
- HDL (HDL cholesterol level) ([2]; Heritage AA): 54.00
- LDL (LDL cholesterol level) ([2]; Heritage AA): 109.14
- Log (TG) (triglyceride level) ([2]; Heritage AA): 5.060
- TC (total cholesterol level) ([2]; Heritage AA): 197.57
- Waist (waist circumference) ([2]; Heritage AA): 96.82
- dBP (diastolic blood pressure) ([2]; Heritage AA): 77.00
- sBP (systolic blood pressure) ([2]; Heritage AA): 119.79
- BM (body mass) ([2]; Heritage Cauc.): 81.98
- Glucose (blood glucose level) ([2]; Heritage Cauc.): 89.24
- HDL (HDL cholesterol level) ([2]; Heritage Cauc.): 48.16
- LDL (LDL cholesterol level) ([2]; Heritage Cauc.): 103.53
- Log (TG) (triglyceride level) ([2]; Heritage Cauc.): 5.115
- TC (total cholesterol level) ([2]; Heritage Cauc.): 193.30
- Waist (waist circumference) ([2]; Heritage Cauc.): 98.17
- dBP (diastolic blood pressure) ([2]; Heritage Cauc.): 75.48
- sBP (systolic blood pressure) ([2]; Heritage Cauc.): 118.38
- BM (body mass) ([2]; Heritage Hisp.): 110.91
- Glucose (blood glucose level) ([2]; Heritage Hisp.): 91.00
- HDL (HDL cholesterol level) ([2]; Heritage Hisp.): 47.00
- LDL (LDL cholesterol level) ([2]; Heritage Hisp.): 147.00
- Log (TG) (triglyceride level) ([2]; Heritage Hisp.): 4.700
- TC (total cholesterol level) ([2]; Heritage Hisp.): 216.00
- Waist (waist circumference) ([2]; Heritage Hisp.): 144.00
- dBP (diastolic blood pressure) ([2]; Heritage Hisp.): 91.00
- sBP (systolic blood pressure) ([2]; Heritage Hisp.): 132.00
- BM (body mass) ([2]; Heritage Other): 60.45
- Glucose (blood glucose level) ([2]; Heritage Other): 93.50
- HDL (HDL cholesterol level) ([2]; Heritage Other): 51.00
- LDL (LDL cholesterol level) ([2]; Heritage Other): 61.50
- Log (TG) (triglyceride level) ([2]; Heritage Other): 4.263
- TC (total cholesterol level) ([2]; Heritage Other): 128.50
- Waist (waist circumference) ([2]; Heritage Other): 86.00
- dBP (diastolic blood pressure) ([2]; Heritage Other): 78.50
- sBP (systolic blood pressure) ([2]; Heritage Other): 108.50
- BM ([2]; patients on the named drug): 82.90
- BMI ([2]; patients on the named drug): 27.12
- Glucose ([2]; patients on the named drug): 91.22
- HDL ([2]; patients on the named drug): 49.45
- LDL ([2]; patients on the named drug): 104.11
- Log (TG) ([2]; patients on the named drug): 5.072
- MSI ([2]; patients on the named drug): −0.1290
- TC ([2]; patients on the named drug): 192.60
- Waist ([2]; patients on the named drug): 98.21
- dBP ([2]; patients on the named drug): 76.12
- sBP ([2]; patients on the named drug): 118.58
